Experimental data as given in patent publication EP4389746A2, “P2X3 RECEPTOR ANTAGONISTS” (Recordati Industria Chimica E Farmaceutica SPA, priority 2022, dated 2024).

Columns and labels:
human P2X2/3 receptor = target: T1, human P2X2/3 receptor (Homo sapiens, UniProt P56373+Q9UBL9); experiment: Calcium fluorescence measurement: human P2X2/3 receptor activity inhibition (CHO-K1 cells, Fluo-8 NoWash, […]); type: cell-based; conditions: for IC50: CHO-K1 cells expressing human P2RX2/X3 channel, 10µM α,β-Met-ATP, read-out: h-P2X2/3 IC50; for Selectivity: ratio of IC50 of P2X2/3/ P2X3 receptors
T1 construct: expressed in transfected cells; host or cells: CHO-K1
T1 sequence (P56373 1-397): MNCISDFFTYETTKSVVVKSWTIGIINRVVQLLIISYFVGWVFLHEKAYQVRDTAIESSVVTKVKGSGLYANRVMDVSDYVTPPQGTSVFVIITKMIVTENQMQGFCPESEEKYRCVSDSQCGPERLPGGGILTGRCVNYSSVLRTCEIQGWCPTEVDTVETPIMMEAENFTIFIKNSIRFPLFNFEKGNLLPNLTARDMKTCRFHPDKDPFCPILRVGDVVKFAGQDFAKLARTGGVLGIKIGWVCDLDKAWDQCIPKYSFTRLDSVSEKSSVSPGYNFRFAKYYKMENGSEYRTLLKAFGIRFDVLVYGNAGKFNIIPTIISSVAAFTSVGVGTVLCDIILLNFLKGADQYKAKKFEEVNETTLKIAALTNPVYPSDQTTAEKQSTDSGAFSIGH
T1 sequence (Q9UBL9 1-471): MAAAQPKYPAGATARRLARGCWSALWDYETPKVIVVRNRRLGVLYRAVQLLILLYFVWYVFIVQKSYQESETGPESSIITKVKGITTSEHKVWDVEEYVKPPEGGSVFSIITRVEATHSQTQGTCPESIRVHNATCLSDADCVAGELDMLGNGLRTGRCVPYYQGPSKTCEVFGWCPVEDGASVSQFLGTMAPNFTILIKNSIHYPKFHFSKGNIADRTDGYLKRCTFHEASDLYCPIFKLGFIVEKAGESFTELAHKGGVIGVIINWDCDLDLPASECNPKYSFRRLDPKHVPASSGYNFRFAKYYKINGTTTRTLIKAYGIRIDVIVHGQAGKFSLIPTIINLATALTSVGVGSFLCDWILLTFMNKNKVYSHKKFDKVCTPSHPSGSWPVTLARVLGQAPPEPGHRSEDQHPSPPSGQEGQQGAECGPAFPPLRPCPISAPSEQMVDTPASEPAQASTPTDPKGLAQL
Experimental: Determination of human P2X2/3 receptor activity inhibition
The assay for the human P2RX2/X3 has been evaluated by the screening instrumentation using the […] as reader and the FLUO8-NoWash dye as fluorescent readout for calcium detection.
CHO-K1 cells recombinantly expressing the human P2RX2/X3 channel are maintained in DMEM F-12 (1:1) mixture (LONZA cat. n°: BE04-687F/U1) supplemented with 5 mL of 100 mM Sodium Pyruvate (LONZA cat. n° BE13-115E), 25 mL of 7.5% Sodium Bicarbonate (LONZA cat. n° BE17-613E), 6.5 mL of 1M Hepes (LONZA cat. n° BE17-737E), 5 mL of 100X Penicillin/Streptomycin mixture (LONZA cat. n° DE17-602E) and 50 mL of Fetal Bovine Serum (Sigma cat. n° F7524), 5 µg/mL Puromycin dihydrochloride (Sigma cat. n° P9620) and 1 mg/ml G418 disulfate salt (Sigma cat. n° G8168).
Cells were seeded into black-walled clear bottom 384 Multiwell plates at a density of 10.000 cells/well in complete medium. After 24 h the culture medium was replaced with 20 µL/well of Fluo-8 NoWash calcium sensitive dye (AAT Bioquest cat. n° 36316) diluted in Tyrode's buffer (Standard Tyrode's buffer: in house solution, 130 mM NaCl, 5 mM KCl, 2 mM CaCl2, 5 mM NaHCO3, 1 mM MgCl2, 20 mM HEPES, pH 7.4).
The plates were incubated for 1 hours at 37°C and injected with 10 µL/well of test compounds at 3X concentration in Tyrode's buffer with the […]. After 5 minutes a second injection of 15 µL/well of 10µM α,β-Met-ATP in Tyrode's buffer (α,β-Met-ATP: from Tocris cat. n° 3209) was performed and the signal of the emitted fluorescence was recorded by […] (Molecular Devices).
The selectivity is expressed as the ratio of IC50 of P2X2/3/ P2X3 receptors. Table 8: Human P2X3 and h-P2X2/3 receptor antagonist activity for selected compounds of the invention.

human P2X3 receptor = target: T2, human P2X3 receptor (Homo sapiens, UniProt P56373); experiment: Calcium luminescence measurement: human P2X3 receptor activity inhibition (CHO-K1 cells, photoprotein readout, FLEXSTATION); type: cell-based; conditions: CHO-K1 cells co-expressing human P2X3 and Ca2+ sensitive photoprotein; agonist α,β-Met-ATP; read-out: h-P2X3 IC50
T2 construct: expressed in transfected cells; host or cells: CHO-K1
T2 sequence (P56373 1-397): T1 sequence (P56373 1-397)
Experimental: Determination of human P2X3 receptor activity inhibition
The assay for the human purinergic P2RX3 receptor has been adapted to the internal screening instrumentation using the FLEXSTATION as reader and a photoprotein as luminescent readout. The assay consists of CHO-K1 cells recombinantly co-expressing the human P2rx3 receptor and a Ca^2+ sensitive photoprotein. Cells are maintained in DMEM F-12 (1:1) mixture (LONZA cat. n° BE04-687F/U1) supplemented with 9 mL of 100 mM Sodium Pyruvate (LONZA cat. n° BE13-115E), 29 mL of 7.5% Sodium Bicarbonate (LONZA cat. n° BE17-613E), 5.5 mL of 1 M Hepes (LONZA cat. n° BE17-737E), 5 mL of 100X Penicillin/Streptomycin mixture (LONZA cat. n° DE17-602E) and 50 mL of Fetal Bovine Serum (Sigma cat. n° F7524), 1 mg/mL G418 disulfate salt (Sigma cat. n° G8168) and 5 µg/ml Puromycin dihydrochloride (Sigma cat. n° P9620). Standard propagation conditions consist of seeding in a P75 flask twice a week, recovering about 20×10^6 cells, corresponding to about 80% confluency. Cells were seeded into black-walled clear bottom 96 well plates at a density of 40000 cells/well in a complete medium. After 24 h the culture medium was replaced with 200 µL/well of coelenterazine in Tyrode's buffer (Standard Tyrode's buffer: in house solution, 130 mM NaCl, 5 mM KCl, 2 mM CaCl2, 5 mM NaHCO3, 1 mM MgCl2, 20 mM HEPES, pH 7.4). Coelenterazine was purchased from BIOSYNTH (cat. n° C-7001). 10 mM stock solution was prepared in DMSO and glutathione and stored at -20° C. The plates were incubated for 4 hours at 37°C, and injected with 10 µL/well of test compounds at 25X concentration in Tyrode's buffer. After 4 minutes a second injection of 50 µL/well of 5X α,β-Met-ATP in Tyrode's buffer (α,β-Met-ATP: from Tocris (cat. n° 3209), was dissolved at 100 mM in water and stored in aliquots at -20°C) was performed and the signal of the emitted luminescence was recorded by FLEXSTATION III (Molecular Devices). […]
The inhibition curves of the tested compounds at cloned P2X3 receptor were determined by nonlinear regression analysis using software Prism 5.0 (Graphpad, San Diego, CA). The IC50 values and pseudo-Hill slope coefficients were estimated by the program.

| Structure (SMILES) | IC50 (human P2X2/3 receptor) | Selectivity (human P2X2/3 receptor) | IC50 (human P2X3 receptor) |
| --- | --- | --- | --- |
| COC(C)(C)c1nnc2c3nnc(N4CCOCC4)cc3n(Cc3ccc(Cl)cc3)c(=O)n12 [Example 48, 6-[(4-Chlorophenyl)methyl]-3-(2-methoxypropan-2-yl)-8-(morpholin-4-yl)[1,2,4]triazolo[4',3': 1,6]pyrimido[5,4-c]pyridazin-5(6H)-one] | > 30000 nM | >1000 | 24.9 nM |
| CC(C)(CO)C1CN2C(=O)N(Cc3ccc(Cl)cc3)c3cc(N4CCOCC4)nnc3C2=N1 (centres unmarked) [Example 17, 5-[(4-Chlorophenyl)methyl]-9-(1-hydroxy-2-methylpropan-2-yl)-3-(morpholin-4-yl)-8,9-dihydroimidazo[1',2':1,6]pyrimido[5,4-c]pyridazin-6(5H)-one] | > 30000 nM | >722 | 41.5 nM |
| CC(C)(C)c1nnc2c3nnc(N4CCC(O)CC4)cc3n(Cc3ccc(Cl)cc3)c(=O)n12 [Example 55, 3-tert-Butyl-6-[(4-chlorophenyl)methyl]-8-(4-hydroxypiperidin-1-yl)[1,2,4]triazolo[4',3': 1,6]pyrimido[5,4-c]pyridazin-5(6H)-one] | > 30000 nM | >1200 | 25 nM |
| COC(C)(C)C1CN2C(=O)N(Cc3ccc(Cl)cc3)c3cc(N4CCOCC4)nnc3C2=N1 (centres unmarked) [Example 18, 5-[(4-Chlorophenyl)methyl]-9-(2-methoxypropan-2-yl)-3-(morpholin-4-yl)-8,9-dihydroimidazo[1',2':1,6]pyrimido[5,4-c]pyridazin-6(5H)-one] | > 30000 nM | >646 | 46.4 nM |
| COc1ccc(CN2C(=O)N3C(=NC(=O)C3C(C)(C)C)c3ncc(N4CCOCC4)cc32)cc1 (centres unmarked) [Example 20, 3-tert-Butyl-6-[(4-methoxyphenyl)methyl] -8-(morpholin-4-yl)imidazo[1,2-c]pyrido[2,3-e]pyrimidine-2,5(3H,6H)-dione] | 28500 nM | 249 | 114 nM |
| CC(C)(O)C1CN2C(=O)N(Cc3ccc(Cl)cc3)c3cc(N4CCOCC4)nnc3C2=N1 (centres unmarked) [Example 19, 5-[(4-Chlorophenyl)methyl]-9-(2-hydroxypropan-2-yl)-3-(morpholin-4-yl)-8,9-dihydroimidazo[1',2':1,6]pyrimido[5,4-c]pyridazin-6(5H)-one] | > 30000 nM | >961 | 31.2 nM |
| CC(C)(C)c1nnc2c3ncc(N4CCOCC4)cc3n(Cc3ccc(Br)cc3)c(=O)n12 [Example 31, 6-[(4-Bromophenyl)methyl] -3-tert-butyl-8-(morpholin-4-yl)pyrido[2,3-e][1,2,4]triazolo[4,3-c]pyrimidin-5(6H)-one] | 8150 nM | >1000 | 7.2 nM |
| COc1ccc(Cn2c(=O)n3c(C(C)(C)C)nnc3c3ncc(N4CCN(C(C)=O)CC4)cc32)cc1 [Example 36, 8-(4-Acetylpiperazin-1-yl)-3-tert-butyl-6-[(4-methoxyphenyl)methyl]pyrido[2,3-e][1,2,4]triazolo[4,3-c]pyrimidin-5(6H)-one] | > 30000 nM | >119 | 136 nM |
| COc1ccc(Cn2c(=O)n3c(C(C)(C)C)nnc3c3ncc(N4CCOCC4)cc32)cc1 [Example 29, 3-tert-Butyl-6-(4-methoxybenzyl)-8-(morpholin-4-yl)pyrido[2,3-e][1,2,4]triazolo[4,3-c]pyrimidin-5(6H)-one] | 19700 nM | 566 | 34.8 nM |
| CC(C)(C)Cc1nnc2c3nnc(N4CCOCC4)cc3n(Cc3ccc(Cl)cc3)c(=O)n12 [Example 49, 6-[(4-Chlorophenyl)methyl]-3-(2,2-dimethylpropyl)-8-(morpholin-4-yl)[1,2,4]triazolo[4',3':1,6]pyrimido[5,4-c]pyridazin-5(6H)-one] | > 30000 nM | >1500 | 19.5 nM |
| COC(C)(C)c1nnc2c3ncc(N4CCOCC4)cc3n(Cc3ccc(Cl)cc3)c(=O)n12 [Example 32, 6-(4-Chlorobenzyl)-3-(2-methoxypropan-2-yl)-8-(morpholin-4-yl)pyrido[2,3-e][1,2,4]triazolo[4,3-c]pyrimidin-5(6H)-one] | > 30000 nM | >1000 | 21 nM |
| CC(C)(C)c1nnc2c3ncc(N4CCOCC4)cc3n(Cc3ccc(Cl)cc3)c(=O)n12 [Example 30, 3-tert-Butyl-6-[(4-chlorophenyl)methyl]-8-(morpholin-4-yl)pyrido[2,3-e][1,2,4]triazolo[4,3-c]pyrimidin-5(6H)-one] | > 30000 nM | >466 | 64.3 nM |
| CC(C)C1C(=O)N=C2c3ncc(N4CCC(O)CC4)cc3N(Cc3ccc(Cl)cc3)C(=O)N21 (centres unmarked) [Example 26, 6-[(4-Chlorophenyl)methyl]-8-(4-hydroxypiperidin-1-yl)-3-(propan-2-yl)imidazo[1,2-c]pyrido[2,3-e]pyrimidine-2,5(3H,6H)-dione] | > 30000 nM | >260 | 115 nM |
| COc1ccc(CN2C(=O)N3CC(C(C)C)N=C3c3ncc(N4CCOCC4)cc32)nc1 (centres unmarked) [Example 14, 6-[(5-Methoxypyridin-2-yl)methyl]-8-(morpholin-4-yl)-2-(propan-2-yl)-2,6-dihydroimidazo[1,2-c]pyrido[2,3-e]pyrimidin-5(3H)-one] | – | – | 822 nM |
| CC(C)C1CN2C(=O)N(Cc3ccc(Cl)cc3)c3cc(N4CCNCC4)cnc3C2=N1 (centres unmarked) [Example 8, 6-[(4-Chlorophenyl)methyl]-8-(piperazin-1-yl)-2-(propan-2-yl)-2,6-dihydroimidazo[1,2-c]pyrido[2,3-e]pyrimidin-5(3H)-one] | – | – | 1380 nM |
